Experimental data published in US20090131524A1, “SIALIC ACID ABC TRANSPORTERS IN PROKARYOTES THERAPEUTIC TARGETS” (BUCK INSTITUTE, priority 2005, published 2009).

Tested on: H. ducreyi
Experiment: growth of H. ducreyi in the presence of sialic acid
Type: cell-based, Haemophilus ducreyi
Procedure: H. ducreyi strains were cultured on chocolate agar plates at 35° C. in a 5% CO2 atmosphere as previously described (42). Chocolate agar was supplemented with 1 mM NeuAc (Calbiochem, La Jolla, Calif.) or kanamycin at 20 μg/ml when appropriate. E. coli strains were grown on Luria-Bertani (LB) plates or in LB broth, and were supplemented with kanamycin when appropriate.
In this and previous studies, H. ducreyi were grown on plates containing high levels of sialic acid (22, 50). […] To more quantitatively test whether the presence of high levels of sialic acid affected the growth rate of H. ducreyi, growth curves of H. ducreyi in low (˜0.5 μM, basal level in media) (50), medium (10 μM), and high (1 mM) sialic acid conditions were performed (46). […] Both E. coli and H. influenzae seem to utilize their ability to degrade sialic acid as one mechanism of controlling the intracellular levels of sialic acid (66, 68, 69). As noted above, it is currently unclear if H. ducreyi is able to degrade sialic acid. Another possible mechanism for controlling sialic acid uptake may be through the PBPs. […] Therefore, it is possible that SatA may play an important role in controlling sialic acid uptake in H. ducreyi. One mechanism of control could be that the level of satA expression may be affected by the intracellular levels of sialic acid. […]

Which “effect of sialic acid on growth of the bacteria on plates” value (grown on plates containing high levels of sialic acid) does the source give for CC(=O)N[C@H]1[C@H]([C@H](O)[C@H](O)CO)OC(O)(C(=O)O)C[C@@H]1O (some centres unmarked) [sialic acid, N-acetyl-neuraminic acid] here?
The value was “did not seem to affect the growth”.

And the “growth rate (growth curves)” value (low (~0.5 μM, basal level in media), medium (10 μM) and high (1 mM) sialic acid)?
The value was “no differences in the growth rates”.
